Key:
[1] = Mouse pharmacokinetic test (oral gavage); assay type: in vivo; conditions: plasma, male ICR mice, oral administration by gavage, 10 mg/kg
Protocol: Male ICR mice (20 to 25 g) were used, and fasted overnight. Three mice were taken and orally administered by gavage (10 mg/kg). Blood was collected before the administration, and at 15 min, 30 min, 1 h, 2 h, 4 h, 8 h, and 24 h after the administration. 6,800 g of the blood samples were centrifuged at 2 to 8°C for 6 min, and plasma was collected and stored at -80°C. The plasma at each time point was taken and added with an acetonitrile solution containing internal standard in 3 to 5 times the amount, vortexed and mixed for 1 min, and centrifuged at 13,000 rpm/min at 4°C for 10 min. The supernatant was collected, added with water in 3 times the amount, and mixed. An appropriate amount of the mixture was taken for LC-MS/MS analysis. The main pharmacokinetic parameters were analyzed using WinNonlin 7.0 software with non-compartmental model.

[2] = Human liver microsome stability test; assay type: in vitro ADME; conditions: human liver microsomes
Protocol: The human liver microsome stability test was performed by incubating the compound and human liver microsomes in vitro. First, the compound to be tested was prepared into a 10 mM stock solution in DMSO solvent, and then the compound was diluted to 0.5 mM with acetonitrile. Human liver microsomes (Corning) were diluted with PBS into a microsome/buffer solution, and the solution was used to dilute 0.5 mM compound into a working solution, in which the concentration of the compound was 1.5 µM, and the concentration of human liver microsomes was 0.75 mg/mL. A deep-well plate was taken, 30 µL of the working solution was added per well, and then 15 µL of pre-heated 6 mM NADPH solution was added thereto to initiate a reaction, and the reaction was incubated at 37°C. At 0, 5, 15, 30, and 45 min of the incubation, 135 µL of acetonitrile was added to the corresponding wells to terminate the reaction. After the reaction was terminated with acetonitrile at the last time point of 45 min, the deep-well plate was vortexed for 10 min (600 rpm/min), and then centrifuged for 15 min. After centrifugation, the supernatant was collected, and added with purified water in a ratio of 1:1 to perform LC-MS/MS detection. A ratio of a peak area of compound to a peak area of internal standard at each time point was obtained, and the peak area ratios of the compound at 5, 15, 30, and 45 min were compared with the peak area ratio at 0 min to calculate the remaining percentage of the compound at each time point. T1/2 was calculated by using GraphPad 5 software.

With Cc1nc(N[C@H](C)c2cccc(S(F)(F)(F)(F)F)c2)c2cn(C3(CF)CC3)c(=O)cc2n1 [Compound of formula I, (R)-6-(1-(fluoromethyl)cyclopropyl)-2-methyl-4-((1-(3-(pentafluorosulfanyl)phenyl)ethyl)amino)pyrido[4,3-d]pyrimidin-7(6H)-one] the AUC(0-t) [1] was 3080 ng·h/mL, the Cmax [1] was 1440 ng/mL and the Tmax [1] was 1 h. The half-life [1] was 0.97 h, the half-life at 1 µM [2] was 12.8 h and the “Remaining percentage (%) of compound after incubation for 30 min” value ([2]; incubation for 30 min, 37°C) was 98.7%.

Source: patent publication EP4570800A1, “CRYSTAL FORM OF PYRIDINOPYRIMIDINONE COMPOUND, ACID SALT THEREOF, CRYSTAL FORM OF ACID SALT THEREOF, AND USE” (Wuhan Humanwell Innovative Drug Research and Development …, priority 2022, dated 2024)
